pEC50: −log10 of the molar value. Non-standard residues stand in square brackets, D forms with d. Residues, ends and D or L forms follow the SMILES beside them. *: point of attachment. AllylGly = C=CC[C@H](N)C(=O)O; Acryloyl = C=CC(=O)*; NHBn = c1ccc(CN*)cc1; ClAc = O=C(CCl)*
system: SARS-CoV-2; assay: microbe, parasite or virus in culture; settings: Severe acute respiratory syndrome coronavirus 2, RG-2674 (Beta), Vero

SMILES | pEC50
C=CC[C@H](NC(=O)CCl)C(=O)N[C@@H](CC=C)C(=O)N[C@H](CNCc1ccccc1)Cc1c[nH]c2ccccc12 | 5.67
CC(C)C[C@@H](NC(=O)CCl)C(=O)N[C@@H](Cc1c[nH]c2ccccc12)C(=O)NCc1ccccc1 | 7.15
O=C(CS)N[C@@H](Cc1ccccc1)C(=O)N[C@@H](Cc1c[nH]c2ccccc12)C(=O)NCc1ccccc1 | < 4.00
C=CC[C@H](NC(=O)CCl)C(=O)N[C@@H](Cc1c[nH]c2ccccc12)C(=O)NCCN1CCOCC1 | 5.23
CC(C)C[C@H](NC(=O)CCl)C(=O)N[C@H](Cc1c[nH]c2ccccc12)C(=O)NCc1ccccc1 | 5.05
CC(C)C[C@@H](C(=O)NCC12CC3CC(CC(C3)C1)C2)N(Cc1ccccc1)C(=O)CCl | < 5.40
CC(C)C[C@H](NC(=O)CCl)C(=O)N[C@@H](Cc1c[nH]c2ccccc12)C(=O)NCc1ccccc1 | 6.36
C=CC(=O)N[C@@H](CC(C)C)C(=O)N[C@@H](Cc1c[nH]c2ccccc12)C(=O)NCc1ccccc1 | < 4.00
C=CC(=O)N[C@@H](Cc1ccccc1)C(=O)N[C@@H](Cc1c[nH]c2ccccc12)C(=O)NCc1ccccc1 (Acryloyl-Phe-Trp-NHBn) | < 4.70
O=C(CCl)NCC(=O)N[C@@H](Cc1c[nH]c2ccccc12)C(=O)NCc1ccccc1 (ClAc-Gly-Trp-NHBn) | 7.15
CC(C)C[C@H](NC(=O)CCl)C(=O)N[C@@H](Cc1ccccc1)C(=O)N[C@@H](Cc1c[nH]c2ccccc12)C(=O)NCc1ccccc1 (ClAc-Leu-Phe-Trp-NHBn) | < 4.70
COC(=O)[C@H](CCC(N)=O)NC(=O)[C@H](Cc1c[nH]c2ccccc12)NC(=O)[C@H](CC(C)C)NC(=O)CCl (ClAc-Leu-Trp-Gln-OMe) | < 4.00
O=C(CCl)N[C@@H](Cc1ccccc1)C(=O)N[C@@H](Cc1c[nH]c2ccccc12)C(=O)NCc1ccccc1 (ClAc-Phe-Trp-NHBn) | 7.15
CC(C)C[C@H](NC(=O)[C@H](Cc1c[nH]c2ccccc12)NC(=O)CCl)C(=O)NCc1ccccc1 (ClAc-Trp-Leu-NHBn) | 6.59
COC(=O)[C@H](CC(C)C)NC(=O)[C@H](Cc1c[nH]c2ccccc12)NC(=O)CCl (ClAc-Trp-Leu-OMe) | < 5.40
O=C(CCl)N[C@@H](Cc1ccc(O)cc1)C(=O)N[C@@H](Cc1c[nH]c2ccccc12)C(=O)NCc1ccccc1 (ClAc-Tyr-Trp-NHBn) | 5.48
C=CC[C@H](NC(=O)CCl)C(=O)N[C@@H](Cc1c[nH]c2ccccc12)C(=O)NCc1ccccc1 (ClAc-[AllylGly]-Trp-NHBn) | 6.34
CC(C)C(=O)OC[C@H]1O[C@@H](n2ccc(NO)nc2=O)[C@H](O)[C@@H]1O [MOLNUPIRAVIR] | 5.55
CCC(CC)COC(=O)[C@H](C)N[P@](=O)(OC[C@H]1O[C@@](C#N)(c2ccc3c(N)ncnn23)[C@H](O)[C@@H]1O)Oc1ccccc1 [REMDESIVIR] | 5.62

Reference: ChEMBL document CHEMBL5543078, “Peptidomimetics as potent dual SARS-CoV-2 cathepsin-L and main protease inhibitors: In silico design, synthesis and pharmacological characterization” (Eur J Med Chem, 2024)
